Source: publication PMC5814047, “Peptidic inhibitors of insulin-degrading enzyme with potential for dermatological applications discovered via phage display” (PLoS ONE, 2018)

Experiments:
IDE = biological target: T1, IDE (Homo sapiens, UniProt P14735); parameters: method as in PMID 24847884; settings: read-out: IC50 against insulin; cited from earlier work
T1 construct: made in house; host or cells: bacteria
T1 sequence (P14735 1-1019): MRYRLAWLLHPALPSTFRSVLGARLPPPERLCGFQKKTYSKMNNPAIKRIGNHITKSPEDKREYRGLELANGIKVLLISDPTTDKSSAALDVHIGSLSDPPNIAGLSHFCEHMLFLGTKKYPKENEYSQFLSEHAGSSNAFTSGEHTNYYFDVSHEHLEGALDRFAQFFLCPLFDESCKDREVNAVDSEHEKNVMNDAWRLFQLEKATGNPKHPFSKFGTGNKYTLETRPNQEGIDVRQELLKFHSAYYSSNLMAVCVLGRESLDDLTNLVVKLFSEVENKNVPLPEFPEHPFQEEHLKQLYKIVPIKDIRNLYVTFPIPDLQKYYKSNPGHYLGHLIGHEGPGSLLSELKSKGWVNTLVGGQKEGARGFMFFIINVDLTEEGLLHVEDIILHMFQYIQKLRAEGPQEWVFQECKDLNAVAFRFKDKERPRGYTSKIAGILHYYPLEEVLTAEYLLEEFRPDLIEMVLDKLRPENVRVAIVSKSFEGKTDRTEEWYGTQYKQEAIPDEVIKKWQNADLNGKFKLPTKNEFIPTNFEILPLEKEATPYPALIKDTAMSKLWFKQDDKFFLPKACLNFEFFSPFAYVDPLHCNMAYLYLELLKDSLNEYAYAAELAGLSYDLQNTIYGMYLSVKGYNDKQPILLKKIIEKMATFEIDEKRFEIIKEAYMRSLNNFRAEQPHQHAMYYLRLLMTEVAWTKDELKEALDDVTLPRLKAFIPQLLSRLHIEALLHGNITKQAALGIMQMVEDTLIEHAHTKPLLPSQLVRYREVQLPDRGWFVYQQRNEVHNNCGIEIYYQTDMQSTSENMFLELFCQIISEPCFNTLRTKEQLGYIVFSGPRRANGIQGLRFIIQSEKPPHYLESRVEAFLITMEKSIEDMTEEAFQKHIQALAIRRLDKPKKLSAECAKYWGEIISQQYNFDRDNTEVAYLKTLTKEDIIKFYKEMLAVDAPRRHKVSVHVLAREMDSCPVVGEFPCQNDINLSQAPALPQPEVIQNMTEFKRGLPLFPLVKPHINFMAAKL

MMP-7 = biological target: T2, MMP-7 (Homo sapiens, UniProt P09237); assay: MMP Inhibitor Profiling Kit, MMP-7; assay type: biochemical; settings: MMP-7
T2 construct: purchased Enzo Life Sciences, Inc
T2 sequence (P09237 95-267): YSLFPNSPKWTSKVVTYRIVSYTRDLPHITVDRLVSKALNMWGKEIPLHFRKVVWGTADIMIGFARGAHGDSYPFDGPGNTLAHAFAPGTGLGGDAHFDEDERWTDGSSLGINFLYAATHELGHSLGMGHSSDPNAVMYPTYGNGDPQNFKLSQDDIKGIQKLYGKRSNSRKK
Procedure: IDE activity was quantified by monitoring the degradation of Mca-[…](Dnp) (FRET1, 5 μM), fluoresceinated and biotinylated amyloid ß-protein (FAßB; 500 nM) or recombinant human insulin (50 nM) in PBS supplemented with 0.05% BSA. FRET1 degradation was measured by changes in fluorescence (λex = 340 nm, λem = 420 nm); FAßB degradation was monitored by fluorescence polarization (λex = 488 nm, λem = 525 nm), as described; and insulin degradation was quantified by ELISA. In vitro activity assays incorporated recombinant human IDE (1 nM) purified from bacteria. For quantitation of insulin degradation in primary murine skin fibroblasts, cells (1 x 10^5/well) were plated in 96-well plates and maintained in DMEM supplemented with 10% fetal bovine serum (FBS), 2mM glutamine, penicillin and streptomycin. After addition of insulin (10 nM or 100 nM), samples of conditioned medium were removed daily and quickly frozen, then insulin levels were quantified in parallel by ELISA according to manufacturer’s recommendations (Crystal Chem, Downers Grove, IL, USA). Assessment of the activity of P12-3A against a variety of matrix-metalloproteases was conducted using the Matrix Metalloproteinase (MMP) Inhibitor Profiling Kit, Fluorometric RED (Enzo Life Sciences, Inc., Farmingdale, NY, USA) according to manufacturer’s recommendations using the broad-spectrum MMP inhibitor, NNGH, as a positive control. […]

[1] = tested on: multiple matrix-metalloproteases (MMPs); assay: Matrix Metalloproteinase (MMP) Inhibitor Profiling Kit, Fluorometric RED; assay type: biochemical; parameters: % activity relative to DMSO-only controls, single runs / % activity relative to DMSO-only controls, Mean: concentration or dose not given beside the values
Procedure: IDE activity was quantified by monitoring the degradation of Mca-[…](Dnp) (FRET1, 5 μM), fluoresceinated and biotinylated amyloid ß-protein (FAßB; 500 nM) or recombinant human insulin (50 nM) in PBS supplemented with 0.05% BSA. FRET1 degradation was measured by changes in fluorescence (λex = 340 nm, λem = 420 nm); FAßB degradation was monitored by fluorescence polarization (λex = 488 nm, λem = 525 nm), as described; and insulin degradation was quantified by ELISA. In vitro activity assays incorporated recombinant human IDE (1 nM) purified from bacteria. For quantitation of insulin degradation in primary murine skin fibroblasts, cells (1 x 10^5/well) were plated in 96-well plates and maintained in DMEM supplemented with 10% fetal bovine serum (FBS), 2mM glutamine, penicillin and streptomycin. After addition of insulin (10 nM or 100 nM), samples of conditioned medium were removed daily and quickly frozen, then insulin levels were quantified in parallel by ELISA according to manufacturer’s recommendations (Crystal Chem, Downers Grove, IL, USA). Assessment of the activity of P12-3A against a variety of matrix-metalloproteases was conducted using the Matrix Metalloproteinase (MMP) Inhibitor Profiling Kit, Fluorometric RED (Enzo Life Sciences, Inc., Farmingdale, NY, USA) according to manufacturer’s recommendations using the broad-spectrum MMP inhibitor, NNGH, as a positive control.
Supplementary file pone.0193101.s004.tif: S4 Fig Selectivity of P12-3A for IDE vis-à-vis other proteases. Activity of P12-3A (100 μM) against (A) multiple matrix-metalloproteases (MMPs) and (B) multiple peptidases of different protease classes. […] Data are mean ± SD, n = 8–16 per group. P<0.05 by 2-tailed Student’s t-test. […] See Materials and Methods for details. NEP, neprilysin; mCatD, murine cathepsin D; hCatD, human cathepsin D. (TIF) Click here for additional data file.

## NCCCC[C@@H]1NC(=O)/C=C/C(=O)N[C@H](C(N)=O)CCCCNC(=O)[C@@H](Cc2ccc(C(=O)c3ccccc3)cc2)NC(=O)[C@H](CC2CCCCC2)NC1=O [6bK]
IDE
  IC50: ~100 nM

## COc1ccc(S(=O)(=O)N(CC(=O)NO)CC(C)C)cc1 [NNGH, reference compound]
MMP-7
  % activity relative to DMSO-only controls, Mean: 49.4%
[1]; MMP-1
  % activity relative to DMSO-only controls, Mean: 1.0%
[1]; MMP-2
  % activity relative to DMSO-only controls, Mean: 0.122%
[1]; MMP-3
  % activity relative to DMSO-only controls, Mean: -1.2%
[1]; MMP-8
  % activity relative to DMSO-only controls, Mean: 5.1%
[1]; MMP-9
  % activity relative to DMSO-only controls, Mean: 4.0%
[1]; MMP-12
  % activity relative to DMSO-only controls, Mean: 1.9%
[1]; MMP-13
  % activity relative to DMSO-only controls, Mean: 6.5%
[1]; MMP-14
  % activity relative to DMSO-only controls, Mean: 24%
[1]; MMP-19
  % activity relative to DMSO-only controls, Mean: 38%
[1]; NNGH positive control, P< 0.01
  inhibition by positive control, MMPs: significant inhibition
